ChEMBL document CHEMBL2311262, “Structure activity relationship studies of tricyclic bispyran sulfone γ-secretase inhibitors” (Bioorg Med Chem Lett, 2013)

Tests used:
Gamma-secretase [1] = assay: Inhibition of gamma secretase-mediated amyloid beta42 production in HEK293 cells transfected with human APPSOW and APPLON after 5 hrs by sandwich immunoassay; format: cell-based
Gamma-secretase [2] = assay: Inhibition of gamma secretase-mediated amyloid beta40 production in HEK293 cells transfected with human APPSOW and APPLON after 5 hrs by sandwich immunoassay; format: cell-based
Gamma-secretase [3] = assay: Inhibition of gamma secretase-mediated amyloid beta40 production in HEK293 cell membranes transfected with human APPSOW and APPLON mutant after 5 hrs by sandwich immunoassay; format: cell-based
Mus musculus [4] = assay: Inhibition of gamma secretase in B6C3F1 mouse assessed as […] in plasma amyloid beta40 production at 10 mg/kg, po measured at 3 hrs; format: functional
[5] = Ratio of drug level in brain to plasma in rat at 6 hrs; format: ADME; details: read-out: BPR
Homo sapiens = organism: Homo sapiens; assay: Selectivity ratio of inhibition of PS2 (unknown origin) to inhibition of PS1 (unknown origin)
[6] = Volume of distribution at steady state in dog at 2.5 mg/kg, iv; format: ADME, organism-based, Canis lupus familiaris; parameters: dose 2.5 mg/kg, route intravenous; details: in vivo, read-out: Vdss
[7] = Volume of distribution at steady state in rat at 5 mg/kg, iv; format: ADME, organism-based; parameters: dose 5 mg/kg, route intravenous; details: in vivo, read-out: Vdss
[8] = Volume of distribution at steady state in monkey at 2.5 mg/kg, iv; format: ADME, organism-based, Macaca mulatta; parameters: dose 2.5 mg/kg, route intravenous; details: rhesus monkey, in vivo, read-out: Vdss
[9] = Clearance in monkey at 2.5 mg/kg, iv; format: ADME, organism-based, Macaca mulatta; parameters: dose 2.5 mg/kg, route intravenous; details: rhesus monkey, in vivo
[10] = Clearance in dog at 2.5 mg/kg, iv; format: ADME, organism-based, Canis lupus familiaris; parameters: dose 2.5 mg/kg, route intravenous; details: in vivo
[11] = Clearance in rat at 5 mg/kg, iv; format: ADME, organism-based; parameters: dose 5 mg/kg, route intravenous; details: in vivo
[12] = Oral bioavailability in dog at 10 mg/kg; format: ADME, organism-based, Canis lupus familiaris; details: in vivo
[13] = Oral bioavailability in rat at 10 mg/kg; format: ADME, organism-based; details: in vivo
[14] = Oral bioavailability in monkey at 10 mg/kg; format: ADME, organism-based, Macaca mulatta; details: rhesus monkey, in vivo
[15] = Half life in dog at 10 mg/kg, po; format: ADME, organism-based, Canis lupus familiaris; parameters: dose 10 mg/kg, route oral; details: in vivo
[16] = Half life in monkey at 10 mg/kg, po; format: ADME, organism-based, Macaca mulatta; parameters: dose 10 mg/kg, route oral; details: rhesus monkey, in vivo
[17] = Half life in rat at 10 mg/kg, po; format: ADME, organism-based; parameters: dose 10 mg/kg, route oral; details: in vivo
[18] = Tmax in dog at 10 mg/kg, po; format: ADME, organism-based, Canis lupus familiaris; parameters: dose 10 mg/kg, route oral; details: in vivo
[19] = Tmax in monkey at 10 mg/kg, po; format: ADME, organism-based, Macaca mulatta; parameters: dose 10 mg/kg, route oral; details: rhesus monkey, in vivo
[20] = Tmax in rat at 10 mg/kg, po; format: ADME, organism-based; parameters: dose 10 mg/kg, route oral; details: in vivo
[21] = Cmax in dog at 10 mg/kg, po; format: ADME, organism-based, Canis lupus familiaris; parameters: dose 10 mg/kg, route oral; details: in vivo
[22] = Cmax in rat at 10 mg/kg, po; format: ADME, organism-based; parameters: dose 10 mg/kg, route oral; details: in vivo
[23] = Cmax in monkey at 10 mg/kg, po; format: ADME, organism-based, Macaca mulatta; parameters: dose 10 mg/kg, route oral; details: rhesus monkey, in vivo
[24] = AUC (0 to infinity) in dog at 10 mg/kg, po; format: ADME, organism-based, Canis lupus familiaris; parameters: time infinity, dose 10 mg/kg, route oral; details: plasma
[25] = AUC (0 to infinity) in rat at 10 mg/kg, po; format: ADME, organism-based; parameters: time infinity, dose 10 mg/kg, route oral; details: plasma
[26] = AUC (0 to infinity) in monkey at 10 mg/kg, po; format: ADME, organism-based, Macaca mulatta; parameters: time infinity, dose 10 mg/kg, route oral; details: rhesus monkey, plasma
[27] = Inhibition of CYP450 (unknown origin); format: ADME, Homo sapiens
hERG (KCNH2) = hERG (KCNH2) (Homo sapiens, UniProt Q12809); assay: Inhibition of human ERG at 10 uM by voltage clamp assay
Chain of hERG (KCNH2) (Q12809 whole entry, the tested form may be a part): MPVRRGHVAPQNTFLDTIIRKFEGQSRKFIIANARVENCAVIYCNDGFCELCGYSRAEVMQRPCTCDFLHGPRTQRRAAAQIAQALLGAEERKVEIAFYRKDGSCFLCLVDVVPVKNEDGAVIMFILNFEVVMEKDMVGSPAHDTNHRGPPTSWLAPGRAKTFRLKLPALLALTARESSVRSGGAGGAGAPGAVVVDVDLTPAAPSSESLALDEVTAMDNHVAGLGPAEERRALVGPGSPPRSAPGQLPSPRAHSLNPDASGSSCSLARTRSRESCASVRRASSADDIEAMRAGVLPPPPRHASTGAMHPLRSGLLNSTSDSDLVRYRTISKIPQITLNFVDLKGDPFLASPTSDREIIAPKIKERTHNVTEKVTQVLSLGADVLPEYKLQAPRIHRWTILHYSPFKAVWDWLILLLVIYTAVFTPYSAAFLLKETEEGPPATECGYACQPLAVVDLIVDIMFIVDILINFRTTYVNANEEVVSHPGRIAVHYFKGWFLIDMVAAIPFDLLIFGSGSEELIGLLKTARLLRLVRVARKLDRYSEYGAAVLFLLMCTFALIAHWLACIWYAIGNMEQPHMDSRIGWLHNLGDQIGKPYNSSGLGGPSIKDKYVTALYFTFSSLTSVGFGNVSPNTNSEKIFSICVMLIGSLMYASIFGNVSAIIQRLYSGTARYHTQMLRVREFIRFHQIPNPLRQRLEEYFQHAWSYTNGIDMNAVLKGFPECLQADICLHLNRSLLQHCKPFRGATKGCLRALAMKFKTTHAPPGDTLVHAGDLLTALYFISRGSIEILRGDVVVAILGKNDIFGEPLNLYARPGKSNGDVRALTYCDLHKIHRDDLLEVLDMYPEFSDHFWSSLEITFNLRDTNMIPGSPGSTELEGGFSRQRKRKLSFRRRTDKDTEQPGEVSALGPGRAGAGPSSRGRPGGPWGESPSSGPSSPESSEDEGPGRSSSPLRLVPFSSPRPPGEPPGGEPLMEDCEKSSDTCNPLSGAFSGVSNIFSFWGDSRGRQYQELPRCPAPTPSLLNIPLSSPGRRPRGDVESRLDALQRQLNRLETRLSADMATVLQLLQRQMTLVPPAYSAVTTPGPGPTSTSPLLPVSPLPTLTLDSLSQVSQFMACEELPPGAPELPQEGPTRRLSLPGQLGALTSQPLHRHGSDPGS

Gamma-secretase [28] = assay: Inhibition of gamma secretase-mediated notch cleavage in HEK293 cells expressing human notch protein with truncated extracellular EGF repeat domain by sandwich immunoassay; format: cell-based
Rattus norvegicus [29] = assay: Inhibition of gamma secretase in po dosed CD rat assessed as lowering of CSF amyloid beta40 production measured at 3 hrs; format: functional
Rattus norvegicus [30] = assay: Inhibition of gamma secretase in po dosed CD rat assessed as lowering of cortex amyloid beta40 production measured at 3 hrs; format: functional
Mus musculus [31] = assay: Inhibition of gamma secretase in po dosed B6C3F1 mouse assessed as lowering of plasma amyloid beta40 production measured at 3 hrs; format: functional
Mus musculus [32] = assay: Inhibition of gamma secretase in po dosed B6C3F1 mouse assessed as lowering of cortex amyloid beta40 production measured at 3 hrs; format: functional
Rattus norvegicus [33] = assay: Inhibition of gamma secretase in po dosed CD rat assessed as lowering of plasma amyloid beta40 production measured at 3 hrs; format: functional

## O=S(=O)(CC[C@@H]1OCC[C@@]2(S(=O)(=O)c3ccc(Cl)cc3)c3c(F)ccc(F)c3OC[C@@H]12)CC(F)(F)F
Gamma-secretase [1]
  IC50: 6.4 nM
Gamma-secretase [2]
  IC50: 22 nM
Gamma-secretase [3]
  IC50: 7.3 nM

## O=S(=O)(CC[C@@H]1OCC[C@@]2(S(=O)(=O)c3ccc(Cl)cc3)c3c(F)ccc(F)c3OC[C@@H]12)C1CC1
Gamma-secretase [3]
  IC50: 2.1 nM

## CS(=O)(=O)CC[C@@H]1OCC[C@@]2(S(=O)(=O)c3ccc(Br)cc3)c3c(F)ccc(F)c3OC[C@@H]12
Gamma-secretase [1]
  IC50: 0.6 nM
Gamma-secretase [2]
  IC50: 2.5 nM
Gamma-secretase [3]
  IC50: 2.9 nM

## O=C(O)CS(=O)(=O)CC[C@@H]1OCC[C@@]2(S(=O)(=O)c3ccc(Cl)cc3)c3c(F)ccc(F)c3OC[C@@H]12
Mus musculus [4]
  inhibition in vivo at 10 mg/kg: 47%
Gamma-secretase [1]
  IC50: 22 nM
Gamma-secretase [2]
  IC50: 38 nM
Gamma-secretase [3]
  IC50: 2.7 nM
[5]
  Kp at 6 h: 0.1

## CCS(=O)(=O)CC[C@@H]1OCC[C@@]2(S(=O)(=O)c3ccc(Cl)cc3)c3c(F)ccc(F)c3OC[C@@H]12
Gamma-secretase [1]
  IC50: 2 nM
Gamma-secretase [2]
  IC50: 5 nM
Gamma-secretase [3]
  IC50: 3 nM

## CC(C)S(=O)(=O)CC[C@@H]1OCC[C@@]2(S(=O)(=O)c3ccc(Cl)cc3)c3c(F)ccc(F)c3OC[C@@H]12
Gamma-secretase [1]
  IC50: 3 nM
Gamma-secretase [2]
  IC50: 8 nM
Gamma-secretase [3]
  IC50: 5.5 nM

## O=S(=O)(CC[C@@H]1OCC[C@@]2(S(=O)(=O)c3ccc(Cl)cc3)c3c(F)ccc(F)c3OC[C@@H]12)c1ncc[nH]1
Gamma-secretase [1]
  IC50: 1.8 nM
Gamma-secretase [2]
  IC50: 1.5 nM
Gamma-secretase [3]
  IC50: 1.4 nM

## CS(=O)(=O)CC[C@@H]1OCC[C@@]2(S(=O)(=O)c3ccc(OCC(F)(F)F)cc3)c3c(F)ccc(F)c3OC[C@@H]12
Gamma-secretase [3]
  IC50: 5100 nM

## O=S(=O)(CC[C@@H]1OCC[C@@]2(S(=O)(=O)c3ccc(Cl)cc3)c3c(F)ccc(F)c3OC[C@@H]12)c1cnn[nH]1
Gamma-secretase [1]
  IC50: 4.7 nM
Gamma-secretase [2]
  IC50: 13 nM
Gamma-secretase [3]
  IC50: 4.3 nM

## O=S(=O)(CCO)CC[C@@H]1OCC[C@@]2(S(=O)(=O)c3ccc(Cl)cc3)c3c(F)ccc(F)c3OC[C@@H]12
Gamma-secretase [1]
  IC50: 0.9 nM
Gamma-secretase [2]
  IC50: 1.2 nM
Gamma-secretase [3]
  IC50: 1 nM
[5]
  Kp at 6 h: 0.1

## CS(=O)(=O)CC[C@@H]1OCC[C@@]2(S(=O)(=O)c3ccc(Cl)cc3)c3c(F)ccc(F)c3OC[C@@H]12
Homo sapiens
  Selectivity ratio: 19
Gamma-secretase [1]
  IC50: 1 nM
Gamma-secretase [2]
  IC50: 4 nM
Gamma-secretase [3]
  IC50: 1.3 nM

## CS(=O)(=O)CC[C@@H]1OCC[C@@]2(S(=O)(=O)c3ccc(F)c(F)c3)c3c(F)ccc(F)c3OC[C@@H]12
Gamma-secretase [1]
  IC50: 1.4 nM
Gamma-secretase [2]
  IC50: 14 nM
Gamma-secretase [3]
  IC50: 31 nM

## O=S(=O)(CC[C@@H]1OCC[C@@]2(S(=O)(=O)c3ccc(Cl)cc3)c3c(F)ccc(F)c3OC[C@@H]12)C(F)(F)F
Gamma-secretase [1]
  IC50: 4.4 nM
Gamma-secretase [2]
  IC50: 13 nM
Gamma-secretase [3]
  IC50: 7.4 nM

## CS(=O)(=O)CC[C@@H]1OCC[C@@]2(S(=O)(=O)c3ccc(C(F)(F)F)cc3)c3c(F)ccc(F)c3OC[C@@H]12
[6]
  Vd: 6.1 L/kg
[7]
  Vd: 8.9 L/kg
[8]
  Vd: 6.6 L/kg
[9]
  clearance: 6.5 mL/min/kg
[10]
  clearance: 4.6 mL/min/kg
[11]
  clearance: 40 mL/min/kg
[12]
  bioavailability: 100%
[13]
  bioavailability: 44%
[14]
  bioavailability: 70%
[15]
  half-life: 17 h
[16]
  half-life: 17 h
[17]
  half-life: 3.6 h
[18]
  Tmax: 2.3 h
[19]
  Tmax: 5.3 h
[20]
  Tmax: 2 h
[21]
  Cmax: 1500 nM
[22]
  Cmax: 680 nM
[23]
  Cmax: 810 nM
[24]
  AUC(0-inf): 46 µM·h
[25]
  AUC(0-inf): 3.5 µM·h
[26]
  AUC(0-inf): 18 µM·h
[27]
  IC50: > 10000 nM
hERG (KCNH2)
  inhibition at 10 µM: 31%
Gamma-secretase [28]
  IC50: 31 nM
Rattus norvegicus [29]
  ED50: 7.4 mg/kg
Rattus norvegicus [30]
  ED50: 2.8 mg/kg
Gamma-secretase [1]
  IC50: 3.5 nM
Gamma-secretase [2]
  IC50: 11 nM
Gamma-secretase [3]
  IC50: 15 nM
Mus musculus [31]
  ED50: 7.7 mg/kg
Mus musculus [32]
  ED50: 8 mg/kg
Rattus norvegicus [33]
  ED50: 1.9 mg/kg

## CS(=O)(=O)CC[C@@H]1OCC[C@@]2(S(=O)(=O)c3cc(F)cc(F)c3)c3c(F)ccc(F)c3OC[C@@H]12
Gamma-secretase [3]
  IC50: 250 nM

## CCCS(=O)(=O)CC[C@@H]1OCC[C@@]2(S(=O)(=O)c3ccc(Cl)cc3)c3c(F)ccc(F)c3OC[C@@H]12
Gamma-secretase [1]
  IC50: 5 nM
Gamma-secretase [2]
  IC50: 11 nM
Gamma-secretase [3]
  IC50: 6.8 nM

## O=S(=O)(CC[C@@H]1OCC[C@@]2(S(=O)(=O)c3ccc(Cl)cc3)c3c(F)ccc(F)c3OC[C@@H]12)c1ncn[nH]1
Mus musculus [4]
  inhibition in vivo at 10 mg/kg: 30%
Gamma-secretase [1]
  IC50: 4.7 nM
Gamma-secretase [2]
  IC50: 8.9 nM
Gamma-secretase [3]
  IC50: 2.1 nM

## O=S(=O)(CCCO)CC[C@@H]1OCC[C@@]2(S(=O)(=O)c3ccc(Cl)cc3)c3c(F)ccc(F)c3OC[C@@H]12
Gamma-secretase [3]
  IC50: 4.5 nM

## COc1ccc(S(=O)(=O)[C@@]23CCO[C@@H](CCS(C)(=O)=O)[C@@H]2COc2c(F)ccc(F)c23)cc1
Gamma-secretase [3]
  IC50: 360 nM

## CS(=O)(=O)CC[C@@H]1OCC[C@@]2(S(=O)(=O)c3ccc(C#N)c(C#N)c3)c3c(F)ccc(F)c3OC[C@@H]12
Gamma-secretase [1]
  IC50: 120 nM
Gamma-secretase [2]
  IC50: 400 nM
Gamma-secretase [3]
  IC50: 580 nM

## CS(=O)(=O)CC[C@@H]1OCC[C@@]2(S(=O)(=O)c3ccc(C#N)cc3)c3c(F)ccc(F)c3OC[C@@H]12
Gamma-secretase [1]
  IC50: 8.9 nM
Gamma-secretase [2]
  IC50: 25 nM
Gamma-secretase [3]
  IC50: 66 nM
